Literature values in patent US20220008839A1, “SEMI-AQUEOUS METHOD FOR EXTRACTING A SUBSTANCE” (Clean Imagineering LLC, priority 2020, published 2022).

SMILES: C=C(C)[C@@H]1CC[C@]2(CO)CC[C@]3(C)[C@H](CC[C@@H]4[C@@]5(C)CC[C@H](O)C(C)(C)[C@@H]5CC[C@]43C)[C@@H]12 [Betulin]
- solubility in ethanol (an alcohol such as ethanol): highly soluble
- solubility in water: insoluble in water

SMILES: CC(C)=CCC/C(C)=C/C=C/C(C)=C/C=C/C(C)=C/C=C/C=C(C)/C=C/C=C(C)/C=C/C=C(\C)CCC=C(C)C [Lycopene]
- solubility in ethyl acetate (ethyl acetate): freely soluble
- solubility in water: insoluble in water

SMILES: CCOC(C)=O [ethyl acetate]
- water solubility (at 20° C.): 86 mg/mL
